Assay results from PMC6753678, “Fueling Open Innovation for Malaria Transmission-Blocking Drugs: Hundreds of Molecules Targeting Early Parasite Mosquito Stages” (Frontiers in Microbiology, 2019).
Read-outs that look alike come from different tables or passages of the source.

Assays:
HepG2 cells [1] = conditions: cited from earlier work
[2] = tested on: P. falciparum female gametocytes; design: method as in Miguel-Blanco et al 2017; conditions: TCAMS screen comparison; ref Miguel-Blanco et al 2017; read-out: Pf FGAA IC50; cited from earlier work
[3] = tested on: P. falciparum late stage (stages IV-V) gametocytes; design: method as in Almela et al 2016; conditions: TCAMS screen comparison; ref Almela et al 2016; read-out: Pf GCT ATP IC50; cited from earlier work
[4] = tested on: P. falciparum late stage (stages IV-V) gametocytes; assay: P. falciparum late stage gametocyte ATP depletion assay (Pf GC-ATP); conditions: 1: YES; 0: NO
[5] = tested on: P. falciparum female gametocytes; assay: P. falciparum female gametogenesis assay (Pf FGAA); conditions: 1: YES; 0: NO
HepG2 cells [6] = assay: HepG2 cytotoxicity assay; conditions: HepG2 cytotoxicity unified across the three screens
How it was run: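 Cells are plated at 2,500 per well on compound-treated plates in MEM containing 10% fetal bovine serum and 1% NEAA, then incubated 48 h at 37°C.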

[7] = value reported with the Pf FGAA screen, ref Miguel-Blanco et al 2017
[8] = value reported with the Pf GCT ATP screen, ref Almela et al 2016

Structure (SMILES)	HepG2 cytoxicity (HepG2 cells [1]; [7])	HepG2 cytoxicity (HepG2 cells [1]; [8])	IC50 [2]	IC50 [3]	Is compound selective in assay? Pf GC-ATP active? [4]	Is compound selective in assay? Pf FGAA active? [5]	Unified cytotox (HepG2 cells [6])
CC(C)(C)c1ccc(-c2cc3c(ccc4nc(N)nc(N)c43)[nH]2)cc1 [TCMDC-137977]	1.86 µM	3.26 µM	770 nM	550 nM	0 (0: NO)	0 (0: NO)	2.56 µM
CC(C)(C)c1ccc(-c2nc3c(ccc4nc(N)nc(N)c43)[nH]2)cc1.Cl [TCMDC-137984]	2.12 µM	3.85 µM	260 nM	210 nM	1 (1: YES)	1 (1: YES)	2.98 µM
CCCCCCCCN1CCN(CCCCCCNc2c3ccccc3nc3ccccc23)CC1.Cl [TCMDC-138015]	3.35 µM	3.1 µM	640 nM	250 nM	1 (1: YES)	0 (0: NO)	3.23 µM
COc1cc2nc(NCc3cccc(CNC(=O)c4ccc(-c5ccc(C(C)=O)cc5)cc4)c3)nc(N)c2cc1OC.O=C(O)C(F)(F)F [TCMDC-138177]	6.82 µM	9.5 µM	4730 nM	2000 nM	0 (0: NO)	0 (0: NO)	8.16 µM
COc1cc2nc(N3CCN(C(=O)c4c(Cl)nsc4-c4ccccc4Cl)CC3)nc(N)c2cc1OC.O=C(O)C(F)(F)F [TCMDC-138186]	5.89 µM	8.18 µM	990 nM	220 nM	1 (1: YES)	0 (0: NO)	7.04 µM
Cc1ccc(C(=O)Nc2ccc(Nc3ccnc4cc(-c5ccccn5)ccc34)cc2O)cc1.Cl [TCMDC-138205]	1.27 µM	3.11 µM	540 nM	480 nM	0 (0: NO)	0 (0: NO)	2.19 µM
CN(C)CCNCc1ccc(-c2ccc3c(Nc4ccc(Oc5ccccc5)cc4)ccnc3c2)o1 [TCMDC-138399]	5.69 µM	7.57 µM	1560 nM	330 nM	1 (1: YES)	0 (0: NO)	6.63 µM
CN(C)CCN(C)Cc1cccc(-c2ccc3c(Nc4ccc(F)cc4Cl)ccnc3c2)c1 [TCMDC-138416]	6.10 µM	3.6 µM	7020 nM	480 nM	1 (1: YES)	0 (0: NO)	4.85 µM
CN(C)CCNCc1cccc(-c2ccc3c(Nc4ccc(Oc5ccccn5)cc4)ccnc3c2)c1 [TCMDC-138493]	3.98 µM	4.49 µM	820 nM	220 nM	1 (1: YES)	0 (0: NO)	4.24 µM
COc1cc2nc(N3CCC(CCCC4CCNCC4)CC3)nc(NCc3ccccn3)c2cc1OC.O=C(O)C(F)(F)F [TCMDC-138494]	18.51 µM	10.59 µM	6860 nM	400 nM	1 (1: YES)	0 (0: NO)	14.55 µM
CN1CCN(CCCNCc2cccc(Nc3nccc(Nc4ccc(Oc5ccccc5)cc4)n3)c2)CC1 [TCMDC-138616]	4.68 µM	5.17 µM	980 nM	320 nM	1 (1: YES)	0 (0: NO)	4.92 µM
COc1cc2nc(N3CCC(CNC(=O)c4ccc(-c5ccc(-c6noc(C)n6)cc5)cc4)CC3)nc(N)c2cc1OC [TCMDC-138754]	4.90 µM	4.33 µM	1050 nM	110 nM	1 (1: YES)	0 (0: NO)	4.61 µM
COc1cc2nc(N3CCC(CNCc4ccc(-c5ccc(C(F)(F)F)cc5)cc4)CC3)nc(N)c2cc1OC [TCMDC-138757]	1.43 µM	<1.56 µM	100 nM	17.7 nM	1 (1: YES)	1 (1: YES)	1.43 µM
COc1c(C2CCN(CCN3CCC(CNC(=O)c4ccc(-c5ccc(C#N)cc5)cc4)CC3)CC2)ccc2c1CCCC2 [TCMDC-138859]	3.43 µM	3.3 µM	1460 nM	1170 nM	0 (0: NO)	0 (0: NO)	3.36 µM
Cl.Clc1ccc(OCCC2CCN(CCCCCCCN3CCC(CCOc4ccc(Cl)c(Cl)c4)CC3)CC2)cc1Cl [TCMDC-138967]	1.64 µM	2.6 µM	520 nM	470 nM	0 (0: NO)	0 (0: NO)	2.12 µM
C=C[C@H]1CN(CCCCCCC)CC[C@H]1CCNc1ccnc2ccc(OC)cc12 [TCMDC-139204]	2.24 µM	3.4 µM	1800 nM	1080 nM	0 (0: NO)	0 (0: NO)	2.82 µM
COc1ccc(CNC(=O)c2cnc3c(O)cccc3c2Nc2cccc(NC(=O)c3ccc(Cl)c(Cl)c3)c2)cc1.O=C(O)C(F)(F)F [TCMDC-139607]		<1.56 µM	1600 nM	680 nM	0 (0: NO)	0 (0: NO)	1.56 µM
CC(Cc1ccc(CNC(=O)c2ccc(CC(C)NCCc3cccc(Cl)c3)cc2)cc1)NCCc1cccc(Cl)c1 (stereo not drawn) [TCMDC-139659]	2.26 µM	3.15 µM	860 nM	570 nM	0 (0: NO)	0 (0: NO)	2.71 µM
CC(=O)N(Cc1ccc(CC(C)NCCc2cccc(Cl)c2)cc1)Cc1ccc(CC(C)NCCc2cccc(Cl)c2)cc1 (stereo not drawn) [TCMDC-139678]	2.85 µM	2.3 µM	810 nM	1400 nM	0 (0: NO)	0 (0: NO)	2.58 µM
c1cc(Nc2nc(-c3ccc(-c4csc(Nc5ccncc5)n4)cc3)cs2)ccn1 [TCMDC-139725]	2.26 µM	17.3 µM	30 nM	260 nM	1 (1: YES)	1 (1: YES)	9.78 µM
CC(Cc1ccc(C(=O)Nc2ccc(CC(C)NCCc3cccc(Cl)c3)cc2)cc1)NCCc1ccc(C(F)(F)F)cc1 (stereo not drawn) [TCMDC-139790]	4.13 µM	3.3 µM	1010 nM	310 nM	1 (1: YES)	0 (0: NO)	3.71 µM
CC(CCCCCC(=O)Nc1ccc(CC(C)NCCc2cccc(Cl)c2)cc1)NCCc1cccc(Cl)c1 (stereo not drawn) [TCMDC-139800]	2.55 µM	3.2 µM	1390 nM	430 nM	0 (0: NO)	0 (0: NO)	2.87 µM
CCOc1ccccc1CCNC(C)Cc1ccc(C(=O)Nc2ccc(CC(C)NCCc3cccc(Cl)c3)cc2)cc1 (stereo not drawn) [TCMDC-139805]	3.24 µM	3.5 µM	1390 nM	610 nM	0 (0: NO)	0 (0: NO)	3.37 µM
CCCCCCCN1CC[C@@H](CCCc2ccnc3ccc(OCCN4CCNCC4)cc23)[C@@H](CC)C1.Cl [TCMDC-139817]	4.90 µM	6.75 µM	1860 nM	570 nM	1 (1: YES)	0 (0: NO)	5.82 µM
Cc1oc(-c2ccc(Cl)cc2)cc1C(=O)NCCC1CCN(CCCCCNC(=O)/C=C/c2ccc(Cl)c(Cl)c2)CC1 [TCMDC-140009]	3.31 µM	4.1 µM	1830 nM	5430 nM	0 (0: NO)	0 (0: NO)	3.71 µM
